One data set has as its system B. megaterium cells. Description: Membrane permeability assay with propidium iodide. The format is cell-based, Bacillus megaterium.
The test system of the next data set is Aspergillus nidulans A28. Description: Inhibition zone assay. The class given is cell-based. Particulars: N.A. = no inhibition zone at 0.8–1.0 nmol peptides each well. As for the experimental part: (§1) Antimicrobial activity of peptides was assessed by the inhibition zone assay. Membrane permeability assay was performed according to the method previously reported. Sources of microbial strains used here are listed in Supplementary Table S2.

Another data set deals with Aspergillus niger. Description: Inhibition zone assay. Particulars: N.A. = no inhibition zone at 0.8–1.0 nmol peptides each well. The class given is cell-based. How it is done: as §1
In data set [1] the test system is Geotrichum candidum CCTCC AY 93038. Description: Inhibition zone assay. The format is cell-based. As to conditions: N.A. = no inhibition zone at 0.8–1.0 nmol peptides each well. As for the experimental part:
as §1

Data set [2] has as its system Aspergillus fumigatus CEA17. The data set is described as follows: Inhibition zone assay. The format is cell-based. Particulars: mutant (pyrG-), N.A. = no inhibition zone at 0.8–1.0 nmol peptides each well. How it is done:
as §1

In data set [3] the test system is Neurospora crassa CGMCC 3.1605. Description: Inhibition zone assay. The format is cell-based. As to conditions: N.A. = no inhibition zone at 0.8–1.0 nmol peptides each well. How it is done: as §1
In data set [4] the test system is Aspergillus nidulans RCho15. The data set is described as follows: Inhibition zone assay. The format is cell-based. As to conditions: N.A. = no inhibition zone at 0.8–1.0 nmol peptides each well. How it is done:
as §1

The subject of data set [5] is Aspergillus fumigatus CEA17, A. nidulans A28 and RCho15, A. niger, Geotrichum candidum, Neurospora crassa. As to conditions: summary of Table 1; range stated for DtDRS-1 and DRS together.
Data set [6] concerns Micrococcus luteus CGMCC 1.0290. Description: Inhibition zone assay. The class given is cell-based. Particulars: Gram-positive, N.A. = no inhibition zone at 0.8–1.0 nmol peptides each well. As for the experimental part:
as §1

Data set [7] deals with Bacillus megaterium CGMCC 1.0459. The data set is described as follows: Inhibition zone assay. The format is cell-based. Particulars: Gram-positive, N.A. = no inhibition zone at 0.8–1.0 nmol peptides each well. How it is done:
as §1

Assay in data set [8]: not given
The source holds these as a separate data set.

Assay in data set [9]: not given
This is another data set of the same source.

The test system of data set [10] is Xanthomonas oryzae pv.oryzae. As to conditions: inhibition zone assay; Gram-negative; N.A. = no inhibition zone at 0.8–1.0 nmol peptides each well.
Assay in data set [11]: not given
This is another data set of the same source.

The test system of data set [12] is Bacillus megaterium and Micrococcus luteus. The data set is described as follows: Inhibition zone assay, summary over two Gram-positive bacteria. The class given is cell-based. As to conditions: summary of Table 1.
Data set [13] relates to G. candidum and N. crassa. Description: Inhibition zone assay, summary over two fungal species. Particulars: summary of Table 1. The class given is cell-based.
Setting [14] is: peptides at 5× CL, milder than positive control meucin-18.

Bridges are numbered along the chain shown (N, C = ends). Where no end group is shown, it is not given here.

Regarding `CN[C@H](CC(C)C)C(=O)N[C@H]1C(=O)N[C@@H](CC(N)=O)C(=O)N[C@H]2C(=O)N[C@H]3C(=O)N[C@H](C(=O)N[C@H](C(=O)O)c4cc(O)cc(O)c4-c4cc3ccc4O)[C@H](O)c3ccc(c(Cl)c3)Oc3cc2cc(c3O[C@@H]2O[C@H](CO)[C@@H](O)[C@H](O)[C@H]2O[C@H]2C[C@](C)(N)[C@H](O)[C@H](C)O2)Oc2ccc(cc2Cl)[C@H]1O` [vancomycin, reference compound], the “Effect on membrane integrity (propidium iodide fluorescence)” value (from here on “Effect on membrane integrity”) in the data set with B. megaterium cells (vancomycin at 10× CL, negative control) is on record as “no fluorescence increase”.

As for “DCLSGRYKGPCAVWDNETCRRVCKEEGRSSGHCSPSLKCWCEGC (disulfide 2-44, 11-33, 19-39, 23-41) [DRS, Drosomycin, reference compound]”, the “CL (lethal concentration)” value in the data set on Aspergillus nidulans A28 was 0.45 µM; in the data set with Aspergillus niger, 1.32 µM; in data set [1], 1.89 µM; in data set [2], 0.30 µM; in data set [3] it was 0.1 µM; in data set [4], 1.73 µM. The “Lethal concentrations (CL), range over sensitive fungi” value in [5] fell in the range of 0.1 to 2.6 µM.

Regarding “DCLSGRYKGPCAVWDNETCRRVCKEEGRVSGHCSPSLKCWCEGC (disulfide 2-44, 11-33, 19-39, 23-41) [DtDRS-1]”, the “CL (lethal concentration)” value with Aspergillus nidulans A28 was 1.25 µM; in the data set on Aspergillus niger it was 2.63 µM; in data set [1], 2.50 µM; in [2], 0.33 µM; in data set [3] it was 0.3 µM; in data set [4] it was 2.03 µM. For the same molecule, the “Lethal concentrations (CL), range over sensitive fungi” value in data set [5] fell in the range of 0.1 to 2.6 µM.

“DFKSGKFKGGCMAWSGEKCRRLCKEQGAVSGHCSSNFKCWCEM (disulfide 11-33, 19-39, 23-41 (inferred)) [DtDRS-11]” showed a Turns content of 15%. Moreover, the “CL (lethal concentration)” value in data set [6] is 3.06 µM. Besides, the “CL (lethal concentration)” value in data set [7] stood at 4.41 µM. Also, in data set [8], the Unordered content stood at 48%. The same molecule displayed a β-Sheet content in data set [9] of 16%. The “Effect on membrane integrity” value with B. megaterium cells (setting [14]) is “immediate fluorescence increase”. For the same molecule, the “CL (lethal concentration)” value in data set [10] is 8.84 µM. This molecule also returned a α-Helix content in data set [11] of 21%.

As to “DFLSGKFKGGCMMWSGEKCRRLCKEQGAVSGHCSTNFKCWCEE (disulfide 11-33, 19-39, 23-41 (inferred)) [DtDRS-11d]”, the Turns content was determined as 15%. For the same molecule, the “CL (lethal concentration)” value in data set [6] is 1.08 µM. In addition, the “CL (lethal concentration)” value in data set [7] came out at 0.98 µM. The Unordered content in data set [8] was 53%. Further, the “CL, range over two Gram-positive bacteria” value in data set [12] is 0.98 to 1.08 µM. The same molecule returned a β-Sheet content in data set [9] of 16%. Besides, in the data set with B. megaterium cells (setting [14]), the “Effect on membrane integrity” value is on record as “immediate fluorescence increase”. This molecule also registered a α-Helix content in [11] of 18%.

In turn, “RDFLSGTFGGPCWAWSGEKCRRLCIEEGHVSGHCSGAMKCWCEG (disulfide 12-34, 20-40, 24-42 (inferred)) [DRS-3-WDB]” yielded a Turns content of 18%. The “CL (lethal concentration)” value in [1] was determined as 4.89 µM. Further, the “CL (lethal concentration)” value in [3] was found to be 3.72 µM. For the same molecule, in [8], the Unordered content came out at 41%. Also, the β-Sheet content in data set [9] was 22%. In addition, in data set [13], the “CL, range over two fungal species” value lay in the range of 3.72 to 4.89 µM. For the same molecule, the α-Helix content in data set [11] came to 19%.

Source of the values: paper PMC4999892 (Scientific Reports, 2016).
